Entries after “also recorded” stand apart in the source; their conditions may differ.
Key:
formalin-injected mice [1] = test: Formalin-induced chronic pain-like state (CPLS): persistent hypersensitivity to heat and mechanical stimuli; format: in vivo, mouse; conditions: for alleviation of the hypersensitive state (contralateral hyperalgesia): mouse, in vivo; for conversion to CPLS (contralateral hyperalgesia, PFD14): maximally effective dosages on PFD2-4: gabapentin 50 mg-kg^−1 IP, morphine 10 mg-kg^−1 subcutaneous, ketamine 4 mg-kg^−1 IP, ketoprofen 100 mg-kg^−1 IP, WT mice, formalin; for pain chronification (contralateral hyperalgesia): GW7647 10 mg-kg^−1 IP, post-procedural day 2-4
naïve mice = test: Capsaicin-evoked nocifensive behavior; format: in vivo, mouse
Protocol: Capsaicin: Capsaicin or its vehicle was injected into the plantar surface of the left hind paw (20 μl) or left forepaw (10 μl), i.e. contralaterally to the formalin injection site. Nocifensive behavior was videorecorded for 10 min and evaluated under blinded conditions.

PPAR-α = target: T1, PPAR-α (Homo sapiens, UniProt Q07869); conditions: activation of PPAR-α by exogenous PEA; cited from earlier work
T1 sequence (Q07869 1-468): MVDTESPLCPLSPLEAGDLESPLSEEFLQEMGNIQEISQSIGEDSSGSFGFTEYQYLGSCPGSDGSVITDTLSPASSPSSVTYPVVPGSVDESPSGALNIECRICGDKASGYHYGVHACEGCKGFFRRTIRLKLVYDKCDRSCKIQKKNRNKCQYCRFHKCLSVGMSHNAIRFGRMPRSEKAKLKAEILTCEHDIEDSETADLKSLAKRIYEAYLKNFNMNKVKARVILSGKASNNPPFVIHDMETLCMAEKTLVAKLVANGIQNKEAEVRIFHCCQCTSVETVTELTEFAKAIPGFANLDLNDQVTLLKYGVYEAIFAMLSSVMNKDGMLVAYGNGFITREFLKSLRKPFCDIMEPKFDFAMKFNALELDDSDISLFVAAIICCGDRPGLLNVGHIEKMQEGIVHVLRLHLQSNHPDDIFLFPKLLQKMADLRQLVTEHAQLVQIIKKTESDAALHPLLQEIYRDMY

mice and rats = conditions: cited from earlier work; for sensory abnormalities caused by carrageenan injection, ultraviolet B-radiation or CCI: mice and rats
[2] = in vivo; cited from earlier work
[3] = test system: PEA levels in diseased tissues of CCI and tumor-bearing mice; conditions: cited from earlier work
[4] = test system: fibrosarcoma-bearing mice; conditions: cited from earlier work
[5] = test system: DRG neurons co-cultured with fibrosarcoma cells; conditions: cited from earlier work
[6] = test system: spinal-cord transcription; test: RNA sequencing and metabolomic analysis of L4-L6 spinal cord; format: in vivo, mouse; conditions: GW7647, post-injury
Protocol: RNA sequencing and bioinformatics analysis: We extracted total RNA with the RNeasy Mini Kit (Qiagen). Samples with RNA integrity number ≥8.5 were kept for library construction. cDNA synthesis, amplification, library construction, and sequencing were performed at Novogene (Bejing, China) using the Illumina NovaSeq platform with paired-end 150 bp (PE 150) sequencing strategy. Downstream analysis was performed using a combination of programs including STAR, HTseq, Cufflink and Novogene's wrapped scripts. Alignments were parsed using the STAR program and differential expressions were determined using DESeq2/edgeR. Gene Ontology (GO) and Kyoto Encyclopedia of Genes and Genomes (KEGG) enrichment were implemented using the ClusterProfiler.
Metabolomic analysis: Metabolomics analyses were performed at the West Coast Metabolomics Center of the University of California Davis, as described^55. Briefly, frozen lumbar spinal cord (L4-L6) fragments (˜5 mg) were homogenized in Eppendorf tubes (2 ml) for 2 min using metal spheres ([…] diameter) in a MM300 mill (Retsch, Germany). A mixture of isopropanol/acetonitrile/water (3/3/2, vol) was added to the grounded tissue (1 ml per 20 mg), stirred for 10 s and shaken at 4° C. for 5 min. […]

formalin-injected mice [7] = test: Formalin-induced paw edema; format: in vivo, mouse; conditions: pretreatment; ARN16186 10 mg-kg^−1 IP, ARN19702 30 mg-kg^−1 IP; wild-type mice, 1% formalin
Protocol: Paw edema was measured with a digital caliper (Fisher Scientific, USA) and is expressed as the difference (A paw thickness, mm) between ipsilateral and contralateral paws.

formalin-injected mice [8] = test: Formalin test: acute nocifensive behavior; conditions: pretreatment; ARN16186 10 mg-kg^−1 IP, ARN19702 30 mg-kg^−1 IP; wild-type mice, 1% formalin
naïve animals = test: Baseline nociceptive thresholds in naïve animals; format: in vivo, mouse; conditions: ARN19702 30 mg-kg^−1 IP, ARN16186 10 mg-kg^−1 IP
activated leukocytes = conditions: topical application; cited from earlier work
[9] = test system: male rat model of type-1 diabetes; conditions: cited from earlier work
macrophages = conditions: cited from earlier work
rodents = conditions: male (but not female) rodents; cited from earlier work

## CN1CC[C@]23c4c5ccc(O)c4O[C@H]2[C@@H](O)C=C[C@H]3[C@H]1C5 [morphine]
formalin-injected mice [1]
  alleviation of the hypersensitive state (contralateral hyperalgesia): only temporarily alleviated

## CNC1(c2ccccc2Cl)CCCCC1=O (centres unmarked) [ketamine]
formalin-injected mice [1]
  conversion to CPLS (contralateral hyperalgesia, PFD14): not mimicked; also recorded: failed to stop; also recorded: do not prevent; also recorded: fail to prevent

## COc1cc(CNC(=O)CCCC/C=C/C(C)C)ccc1O [capsaicin]
naïve mice; forepaw CPS injection, formalin-naïve mice
  median effective dose (ED50), nocifensive response: ~0.1 µg
naïve mice; intraplantar hind paw injection
  half-maximal dose, nocifensive response: 0.1 µg

## CCCCCCCCCCCCCCCC(=O)NCCO [PEA, palmitoylethanolamide]
formalin-injected mice [1]; on PFD2-4, PEA 30 mg-kg^−1 subcutaneous, fenofibrate 100 mg-kg^−1 IP
  CPLS: blocked
PPAR-α
  inflammation: attenuates
  mitochondrial respiration: stimulates
  pain: attenuates
Mice and rats
  sensory abnormalities caused by carrageenan injection, ultraviolet B-radiation or CCI: mimicked

## C[C@@H]1OC(=O)[C@@H]1NC(=O)OCCCCCc1ccccc1 [ARN077]
[2]
  crossing of the blood-brain barrier: cannot cross; also recorded: does not cross
[3]
  PEA levels in diseased tissues: restores baseline
formalin-injected mice [1]; post-injury intrathecal infusion, 30 ng, 5 μL, at PFD2 and PFD4, assessed PFD14
  persistent hypersensitivity (CPLS) elicited by formalin: stopped
[4]
  mechanical hypersensitivity: reduces
[5]
  calcium signaling: rapidly normalizes
Mice and rats
  sensory abnormalities caused by carrageenan injection, ultraviolet B-radiation or CCI: corrects

## CC(C)(Sc1ccc(CCN(CCCCC2CCCCC2)C(=O)NC2CCCCC2)cc1)C(=O)O [GW7647]
[6]
  injury-associated changes in spinal-cord transcription: prevented
formalin-injected mice [1]; NAAA-overexpressing mice treated with 0.1% formalin
  pain chronification (contralateral hyperalgesia): stopped
formalin-injected mice [1]; wild-type mice treated with 1% formalin
  pain chronification (contralateral hyperalgesia): stopped

## CCCCc1ccc(OC2C[C@H]3CC[C@@H](C2)N3S(=O)(=O)c2c(C)n[nH]c2C)cc1 (some centres unmarked) [ARN16186]
formalin-injected mice [7]
  paw edema (PFD14): prevents
formalin-injected mice [1]; ARN16186 10 mg-kg^−1 IP once daily PFD1 to PFD3, male mice
  protective effects of ARN19702 against CPLS (contralateral hyperalgesia): mimicked
formalin-injected mice [1]; pretreatment of wild-type mice, ARN19702 30 mg-kg^−1 IP, ARN16186 10 mg-kg^−1 IP
  NAAA-null phenotype (weakened nocifensive response, no inflammation or persistent hypersensitivity after formalin): recapitulated
formalin-injected mice [1]; pretreatment, ARN16186 10 mg-kg^−1 IP, ARN19702 30 mg-kg^−1 IP, wild-type mice, 1% formalin
  persistent contralateral hyperalgesia (PFD14): prevents
formalin-injected mice [8]
  nocifensive response to formalin: prevents
naïve animals
  baseline nociceptive thresholds: Neither compound affected

## CC(C(=O)O)c1cccc(C(=O)c2ccccc2)c1 (centres unmarked) [ketoprofen]
formalin-injected mice [1]
  conversion to CPLS (contralateral hyperalgesia, PFD14): not mimicked; also recorded: failed to stop; also recorded: do not prevent; also recorded: fail to prevent

## NCC1(CC(=O)O)CCCCC1 [gabapentin]
formalin-injected mice [1]
  conversion to CPLS (contralateral hyperalgesia, PFD14): not mimicked; also recorded: failed to stop; also recorded: do not prevent; also recorded: fail to prevent
  alleviation of the hypersensitive state (contralateral hyperalgesia): only temporarily alleviated

## O=C(CCc1ccccc1)N[C@H]1COC1=O [(S)-OOPP]
Activated leukocytes
  PEA levels in activated leukocytes: reinstates normal
  inflammatory responses induced by carrageenan or endotoxin: blunts

## CN(C)C(=N)N=C(N)N [metformin]
[9]
  therapeutic efficacy in painful peripheral neuropathy: may exhibit therapeutic efficacy
macrophages
  macrophage phenotype shift toward glycolysis / trained immunity: stopped
rodents
  neuropathic pain: prevents

## CCC(=O)NC[C@H](Cc1ccc(OCCc2nc(-c3ccccc3)oc2C)cc1)N/C(C)=C\C(=O)c1ccc(C(F)(F)F)cc1 [GW6471]
formalin-injected mice [1]; wild-type animals pretreated with GW6471 4 mg-kg^−1 IP, 15 min prior to ARN19702
  loss of the ARN19702 effect on transition to CPLS: replicated
Mice and rats; rats
  effects of ARN077 on sensory abnormalities in the presence of the PPAR-α antagonist: prevented

## NC(=O)c1cccc(-c2cccc(OC(=O)NC3CCCCC3)c2)c1 [URB597]
formalin-injected mice [1]; URB597 3 mg-kg^−1 IP once daily from PFD3 to PFD5, male mice
  emergence of formalin-induced CPLS (contralateral hyperalgesia and allodynia): prevents the emergence
